Measured values published in doi:10.1101/2023.03.24.534094v2 (biorxiv, 2023).
Like-named read-outs stand apart in the source and are kept apart here. Values belong to the molecule of their own block, whether it stands above or below them.

Legend:
Assay in all cases: biochemical
CDKL1 = CDKL1 (Homo sapiens, UniProt Q00532)
CK1d = CK1d (Homo sapiens, UniProt P48730)
CK1e = CK1e (Homo sapiens, UniProt P49674)
CaMK1g = CaMK1g (Homo sapiens, UniProt Q96NX5)
CaMK4 = molecular target: T1, CaMK4 (Homo sapiens, UniProt Q16566)
T1 sequence (Q16566 1-473): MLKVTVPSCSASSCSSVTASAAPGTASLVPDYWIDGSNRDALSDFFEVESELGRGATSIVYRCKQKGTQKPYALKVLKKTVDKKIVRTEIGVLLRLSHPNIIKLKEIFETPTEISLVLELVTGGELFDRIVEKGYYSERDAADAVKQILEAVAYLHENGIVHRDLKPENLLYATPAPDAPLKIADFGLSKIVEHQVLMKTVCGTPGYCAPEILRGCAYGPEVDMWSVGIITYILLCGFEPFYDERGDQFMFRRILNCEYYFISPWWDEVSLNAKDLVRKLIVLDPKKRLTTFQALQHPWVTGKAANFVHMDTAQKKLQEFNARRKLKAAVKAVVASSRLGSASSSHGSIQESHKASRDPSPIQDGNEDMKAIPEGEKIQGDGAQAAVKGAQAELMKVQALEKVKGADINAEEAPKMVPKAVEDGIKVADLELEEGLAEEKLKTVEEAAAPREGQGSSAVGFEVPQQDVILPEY

DAPK3 = DAPK3 (Homo sapiens, UniProt O43293)
Sequence of DAPK3 (O43293 whole entry): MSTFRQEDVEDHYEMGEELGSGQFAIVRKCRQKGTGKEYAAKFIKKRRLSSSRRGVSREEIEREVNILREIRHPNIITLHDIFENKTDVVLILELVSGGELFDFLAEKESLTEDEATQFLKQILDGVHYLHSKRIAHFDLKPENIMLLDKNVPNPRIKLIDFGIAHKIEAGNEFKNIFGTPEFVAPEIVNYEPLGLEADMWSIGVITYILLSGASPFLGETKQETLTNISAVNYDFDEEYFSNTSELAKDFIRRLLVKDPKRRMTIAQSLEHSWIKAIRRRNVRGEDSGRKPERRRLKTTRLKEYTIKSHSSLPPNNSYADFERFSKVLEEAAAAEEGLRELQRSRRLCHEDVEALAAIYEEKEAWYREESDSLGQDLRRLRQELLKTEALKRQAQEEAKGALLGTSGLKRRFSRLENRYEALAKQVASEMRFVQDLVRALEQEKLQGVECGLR

DMPK1 = molecular target: T2, DMPK1 (Homo sapiens, UniProt Q09013)
T2 sequence (Q09013 1-629): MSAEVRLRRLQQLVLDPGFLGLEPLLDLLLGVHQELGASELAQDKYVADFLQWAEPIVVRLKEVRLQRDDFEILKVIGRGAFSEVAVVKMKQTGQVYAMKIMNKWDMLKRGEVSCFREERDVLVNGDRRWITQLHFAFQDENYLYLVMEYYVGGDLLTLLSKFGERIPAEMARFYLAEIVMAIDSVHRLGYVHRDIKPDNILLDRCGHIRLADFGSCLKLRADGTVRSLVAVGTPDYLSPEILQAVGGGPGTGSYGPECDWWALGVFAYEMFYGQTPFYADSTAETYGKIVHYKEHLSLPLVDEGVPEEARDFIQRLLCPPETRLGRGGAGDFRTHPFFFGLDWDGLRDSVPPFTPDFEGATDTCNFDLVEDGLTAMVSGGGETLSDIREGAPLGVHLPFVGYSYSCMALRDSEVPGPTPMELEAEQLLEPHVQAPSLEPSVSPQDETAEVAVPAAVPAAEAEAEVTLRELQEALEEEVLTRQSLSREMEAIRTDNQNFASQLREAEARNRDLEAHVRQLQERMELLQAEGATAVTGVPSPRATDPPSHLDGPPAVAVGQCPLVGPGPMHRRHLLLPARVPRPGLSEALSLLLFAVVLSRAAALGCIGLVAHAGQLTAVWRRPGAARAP

EpHA4 = EpHA4 (Homo sapiens, UniProt P54764)
Sequence of EpHA4 (P54764 whole entry): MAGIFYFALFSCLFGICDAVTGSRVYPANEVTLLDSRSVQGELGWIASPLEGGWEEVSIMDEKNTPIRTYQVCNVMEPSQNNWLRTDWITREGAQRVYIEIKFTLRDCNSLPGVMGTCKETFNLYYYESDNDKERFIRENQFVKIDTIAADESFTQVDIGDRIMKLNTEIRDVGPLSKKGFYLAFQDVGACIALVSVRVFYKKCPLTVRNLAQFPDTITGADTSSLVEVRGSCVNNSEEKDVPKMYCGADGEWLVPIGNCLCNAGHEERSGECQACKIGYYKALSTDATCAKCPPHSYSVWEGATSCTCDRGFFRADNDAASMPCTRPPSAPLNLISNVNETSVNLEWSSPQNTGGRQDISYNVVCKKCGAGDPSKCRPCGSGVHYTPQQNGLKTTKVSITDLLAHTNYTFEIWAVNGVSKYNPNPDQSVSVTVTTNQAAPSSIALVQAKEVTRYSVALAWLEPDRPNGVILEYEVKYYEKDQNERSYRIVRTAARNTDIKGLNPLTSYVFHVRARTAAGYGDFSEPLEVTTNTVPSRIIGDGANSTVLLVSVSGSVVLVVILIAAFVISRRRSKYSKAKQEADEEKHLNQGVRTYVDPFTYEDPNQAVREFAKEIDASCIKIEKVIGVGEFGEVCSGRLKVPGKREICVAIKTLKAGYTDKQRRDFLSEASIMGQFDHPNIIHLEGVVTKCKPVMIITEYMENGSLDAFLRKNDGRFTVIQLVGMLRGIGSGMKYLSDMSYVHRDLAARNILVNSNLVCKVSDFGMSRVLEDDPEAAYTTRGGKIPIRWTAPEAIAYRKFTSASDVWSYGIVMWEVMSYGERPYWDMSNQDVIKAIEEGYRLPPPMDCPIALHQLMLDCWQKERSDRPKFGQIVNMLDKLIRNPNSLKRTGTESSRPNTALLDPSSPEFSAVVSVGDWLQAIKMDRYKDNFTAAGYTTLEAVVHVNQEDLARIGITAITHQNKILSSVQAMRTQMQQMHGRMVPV

NQO2A = molecular target: T3, NQO2A (Homo sapiens, UniProt P16083)
T3 sequence (P16083 1-231): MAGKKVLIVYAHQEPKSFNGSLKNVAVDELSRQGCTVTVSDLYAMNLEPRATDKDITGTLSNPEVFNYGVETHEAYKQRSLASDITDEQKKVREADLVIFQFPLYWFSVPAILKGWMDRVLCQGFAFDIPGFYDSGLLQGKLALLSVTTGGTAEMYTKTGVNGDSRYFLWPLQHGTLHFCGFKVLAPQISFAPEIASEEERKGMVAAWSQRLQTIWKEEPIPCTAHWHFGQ

PAK4 = PAK4 (Homo sapiens, UniProt O96013)
Sequence of PAK4 (O96013 whole entry): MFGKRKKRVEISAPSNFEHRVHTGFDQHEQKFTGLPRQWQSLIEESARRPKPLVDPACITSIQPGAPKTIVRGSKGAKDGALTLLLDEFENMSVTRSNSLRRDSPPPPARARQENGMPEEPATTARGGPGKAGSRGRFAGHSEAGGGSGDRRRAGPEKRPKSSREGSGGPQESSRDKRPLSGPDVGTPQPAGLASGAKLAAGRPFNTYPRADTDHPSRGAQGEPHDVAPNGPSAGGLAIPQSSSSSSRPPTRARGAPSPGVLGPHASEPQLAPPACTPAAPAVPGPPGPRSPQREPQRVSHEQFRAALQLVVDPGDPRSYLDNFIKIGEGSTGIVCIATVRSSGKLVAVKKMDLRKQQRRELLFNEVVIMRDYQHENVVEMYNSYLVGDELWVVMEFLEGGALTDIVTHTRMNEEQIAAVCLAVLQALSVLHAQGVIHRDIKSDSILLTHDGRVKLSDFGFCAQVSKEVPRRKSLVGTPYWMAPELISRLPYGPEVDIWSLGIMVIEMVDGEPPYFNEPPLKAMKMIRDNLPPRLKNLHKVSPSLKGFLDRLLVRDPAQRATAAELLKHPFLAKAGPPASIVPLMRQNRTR

PHKG2 = molecular target: T4, PHKG2 (Homo sapiens, UniProt P15735)
T4 sequence (P15735 1-406): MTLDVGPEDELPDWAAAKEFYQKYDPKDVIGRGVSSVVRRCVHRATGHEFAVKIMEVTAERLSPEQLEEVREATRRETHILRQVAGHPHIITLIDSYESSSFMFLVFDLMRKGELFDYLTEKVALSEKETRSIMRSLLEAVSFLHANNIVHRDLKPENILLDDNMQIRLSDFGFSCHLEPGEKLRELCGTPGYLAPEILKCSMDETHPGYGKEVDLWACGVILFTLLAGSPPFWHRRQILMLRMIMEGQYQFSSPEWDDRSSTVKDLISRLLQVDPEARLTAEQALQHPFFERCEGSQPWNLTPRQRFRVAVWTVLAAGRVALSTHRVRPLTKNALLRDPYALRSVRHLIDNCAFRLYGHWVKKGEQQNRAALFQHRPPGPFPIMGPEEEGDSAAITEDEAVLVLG

SRPK1 = SRPK1 (Homo sapiens, UniProt Q96SB4)
Sequence of SRPK1 (Q96SB4 whole entry): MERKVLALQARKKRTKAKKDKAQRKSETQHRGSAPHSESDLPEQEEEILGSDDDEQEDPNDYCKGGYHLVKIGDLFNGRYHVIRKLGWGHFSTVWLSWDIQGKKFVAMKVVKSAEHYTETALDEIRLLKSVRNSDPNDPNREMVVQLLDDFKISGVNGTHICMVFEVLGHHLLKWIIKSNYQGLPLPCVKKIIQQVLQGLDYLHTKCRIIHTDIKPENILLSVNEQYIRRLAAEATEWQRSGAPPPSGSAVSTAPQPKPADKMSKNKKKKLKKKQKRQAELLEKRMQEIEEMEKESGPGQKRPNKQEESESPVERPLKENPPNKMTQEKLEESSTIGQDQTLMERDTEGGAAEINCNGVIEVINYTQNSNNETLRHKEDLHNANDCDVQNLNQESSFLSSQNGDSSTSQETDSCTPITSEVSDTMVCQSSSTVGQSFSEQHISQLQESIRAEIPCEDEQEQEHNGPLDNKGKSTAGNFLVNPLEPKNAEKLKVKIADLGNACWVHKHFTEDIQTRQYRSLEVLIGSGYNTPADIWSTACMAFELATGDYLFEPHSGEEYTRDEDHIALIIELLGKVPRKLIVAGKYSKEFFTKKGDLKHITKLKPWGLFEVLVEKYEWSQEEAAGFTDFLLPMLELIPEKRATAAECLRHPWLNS

Sequence of CK1e (P49674 whole entry): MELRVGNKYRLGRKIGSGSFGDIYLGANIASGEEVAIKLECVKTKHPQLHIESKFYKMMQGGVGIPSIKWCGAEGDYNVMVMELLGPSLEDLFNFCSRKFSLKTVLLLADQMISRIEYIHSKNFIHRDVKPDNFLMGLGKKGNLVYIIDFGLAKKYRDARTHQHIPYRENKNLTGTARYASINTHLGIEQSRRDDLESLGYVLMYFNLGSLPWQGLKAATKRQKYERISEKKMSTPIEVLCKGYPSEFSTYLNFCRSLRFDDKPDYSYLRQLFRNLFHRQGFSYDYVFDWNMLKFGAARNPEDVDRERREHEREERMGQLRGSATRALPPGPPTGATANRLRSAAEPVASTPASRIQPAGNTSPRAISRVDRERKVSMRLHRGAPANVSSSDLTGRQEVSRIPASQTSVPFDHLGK
Sequence of CK1d (P48730 whole entry): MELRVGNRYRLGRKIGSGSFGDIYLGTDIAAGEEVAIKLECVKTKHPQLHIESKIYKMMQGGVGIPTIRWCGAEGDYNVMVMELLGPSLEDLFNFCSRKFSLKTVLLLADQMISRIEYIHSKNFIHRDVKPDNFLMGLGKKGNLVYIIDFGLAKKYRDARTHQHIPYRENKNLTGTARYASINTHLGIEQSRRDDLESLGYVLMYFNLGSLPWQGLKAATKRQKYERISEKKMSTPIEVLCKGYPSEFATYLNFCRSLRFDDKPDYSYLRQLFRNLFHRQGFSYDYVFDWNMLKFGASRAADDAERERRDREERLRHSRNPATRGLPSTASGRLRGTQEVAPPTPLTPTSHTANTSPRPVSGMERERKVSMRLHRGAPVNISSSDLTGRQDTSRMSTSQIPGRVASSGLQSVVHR
Sequence of CaMK1g (Q96NX5 whole entry): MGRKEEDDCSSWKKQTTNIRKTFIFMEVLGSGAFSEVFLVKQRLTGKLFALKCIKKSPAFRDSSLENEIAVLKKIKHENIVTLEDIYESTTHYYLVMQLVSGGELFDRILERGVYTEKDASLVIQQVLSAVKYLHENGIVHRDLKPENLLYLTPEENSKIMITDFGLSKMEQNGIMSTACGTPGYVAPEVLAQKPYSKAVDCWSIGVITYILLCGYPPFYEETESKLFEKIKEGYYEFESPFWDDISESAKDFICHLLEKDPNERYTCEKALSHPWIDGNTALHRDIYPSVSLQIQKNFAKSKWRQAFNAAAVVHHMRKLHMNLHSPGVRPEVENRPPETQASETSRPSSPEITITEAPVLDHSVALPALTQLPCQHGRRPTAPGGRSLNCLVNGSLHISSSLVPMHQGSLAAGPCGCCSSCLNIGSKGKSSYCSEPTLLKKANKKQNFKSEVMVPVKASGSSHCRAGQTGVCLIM
Sequence of CDKL1 (Q00532 whole entry): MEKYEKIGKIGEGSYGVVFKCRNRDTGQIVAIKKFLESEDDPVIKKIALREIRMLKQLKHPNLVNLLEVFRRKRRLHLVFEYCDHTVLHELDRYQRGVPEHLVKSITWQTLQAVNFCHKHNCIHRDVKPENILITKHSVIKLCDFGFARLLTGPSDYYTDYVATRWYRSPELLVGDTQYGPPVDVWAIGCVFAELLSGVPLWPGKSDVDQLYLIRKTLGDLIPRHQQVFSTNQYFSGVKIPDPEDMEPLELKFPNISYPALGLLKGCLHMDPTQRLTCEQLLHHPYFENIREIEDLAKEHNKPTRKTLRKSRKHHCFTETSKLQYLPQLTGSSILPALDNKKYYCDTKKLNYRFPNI

- ΔTm at 10 µM (CDKL1; read-out: dTm 6): 0 °C
- ΔTm at 10 µM (CK1d; read-out: dTm 6): 0.9 °C
- ΔTm at 10 µM (CK1e; read-out: dTm 6): 2.6 °C
- ΔTm at 10 µM (CaMK1g; read-out: dTm 6): 1.2 °C
- ΔTm at 10 µM (CaMK4; read-out: dTm 6): -0.1 °C
- ΔTm at 10 µM (DAPK3; read-out: dTm 6): -0.2 °C
- ΔTm at 10 µM (DMPK1; read-out: dTm 6): 1.2 °C
- ΔTm at 10 µM (NQO2A; read-out: dTm 6): 0 °C
- ΔTm at 10 µM (PAK4; read-out: dTm 6): 1.1 °C
- ΔTm at 10 µM (PHKG2; read-out: dTm 6): 0.8 °C
- ΔTm at 10 µM (SRPK1; read-out: dTm 6): 0.1 °C
Structure (SMILES): CNc1ncc2cc(-c3cc(Br)ccc3Cl)c(=O)n(CCCCN)c2n1 [compound 6, 8-(4-Aminobutyl)-6-(5-bromo-2-chlorophenyl)-2-(methylamino)pyrido[2,3-d]pyrimidin-7(8H)-one]

- dTm G-5555 (2) (CDKL1; 10 µM, binder): -0.1 °C
- dTm G-5555 (2) (CK1d; 10 µM, binder): 0.4 °C
- dTm G-5555 (2) (CaMK1g; 10 µM, binder): 2.3 °C
- dTm G-5555 (2) (CaMK4; 10 µM, binder): 0.7 °C
- dTm G-5555 (2) (DAPK3; 10 µM, binder): 0.5 °C
- dTm G-5555 (2) (DMPK1; 10 µM, binder): -0.3 °C
- dTm G-5555 (2) (PAK4; 10 µM, binder): 3.5 °C
- dTm G-5555 (2) (PHKG2; 10 µM, binder): 0.6 °C
- dTm G-5555 (2) (SRPK1; 10 µM, binder): -0.4 °C
Structure (SMILES): CNc1ncc2cc(-c3ccc(-c4cccc(C)n4)cc3Cl)c(=O)n(CC3OCC(N)CO3)c2n1 (stereo not drawn) [compound 2, G-5555]

Continued, molecule first:

Structure (SMILES): CNc1ncc2cc(-c3cc(F)ccc3F)c(=O)n(CCCCN)c2n1 [compound 5, 8-(4-Aminobutyl)-6-(2,5-difluorophenyl)-2-(methylamino)pyrido[2,3-d]pyrimidin-7(8H)-one]
- ΔTm at 10 µM (CDKL1; read-out: dTm MR22 (5)): 0.5 °C
- ΔTm at 10 µM (CK1d; read-out: dTm MR22 (5)): 1.3 °C
- ΔTm at 10 µM (CK1e; read-out: dTm MR22 (5)): 2.8 °C
- ΔTm at 10 µM (CaMK1g; read-out: dTm MR22 (5)): -0.4 °C
- ΔTm at 10 µM (CaMK4; read-out: dTm MR22 (5)): -0.6 °C
- ΔTm at 10 µM (DAPK3; read-out: dTm MR22 (5)): 0.5 °C
- ΔTm at 10 µM (DMPK1; read-out: dTm MR22 (5)): 0.9 °C
- ΔTm at 10 µM (EpHA4; read-out: dTm MR22 (5)): 3 °C
- ΔTm at 10 µM (NQO2A; read-out: dTm MR22 (5)): -0.2 °C
- ΔTm at 10 µM (PAK4; read-out: dTm MR22 (5)): 0.2 °C
- ΔTm at 10 µM (PHKG2; read-out: dTm MR22 (5)): 1.4 °C
- ΔTm at 10 µM (SRPK1; read-out: dTm MR22 (5)): 0.3 °C

Structure (SMILES): CNc1ncc2cc(-c3ccccc3Cl)c(=O)n(CCCCN)c2n1 [compound 4, 8-(4-Aminobutyl)-6-(2-chlorophenyl)-2-(methylamino)pyrido[2,3-d]pyrimidin-7(8H)-one]
- ΔTm at 10 µM (CDKL1; read-out: dTm MR21 (4)): 0.5 °C
- ΔTm at 10 µM (CK1d; read-out: dTm MR21 (4)): 2.9 °C
- ΔTm at 10 µM (CK1e; read-out: dTm MR21 (4)): 4.9 °C
- ΔTm at 10 µM (CaMK1g; read-out: dTm MR21 (4)): -0.1 °C
- ΔTm at 10 µM (CaMK4; read-out: dTm MR21 (4)): 0.8 °C
- ΔTm at 10 µM (DMPK1; read-out: dTm MR21 (4)): 2.8 °C
- ΔTm at 10 µM (EpHA4; read-out: dTm MR21 (4)): 4.9 °C
- ΔTm at 10 µM (NQO2A; read-out: dTm MR21 (4)): -1 °C
- ΔTm at 10 µM (PAK4; read-out: dTm MR21 (4)): 2.8 °C
- ΔTm at 10 µM (PHKG2; read-out: dTm MR21 (4)): 0.3 °C
- ΔTm at 10 µM (SRPK1; read-out: dTm MR21 (4)): 0.6 °C

Structure (SMILES): CNc1ncc2cc(-c3cc(Br)ccc3Cl)c(=O)n(C[C@H]3OC[C@H](N)CO3)c2n1 [compound 7, 8-(((2r,5r)-5-Amino-1,3-dioxan-2-yl)methyl)-6-(5-bromo-2-chlorophenyl)-2-(methylamino)pyrido[2,3-d]pyrimidin-7(8H)-one]
- ΔTm at 10 µM (CDKL1; read-out: dTm 7): -0.1 °C
- ΔTm at 10 µM (CK1d; read-out: dTm 7): -0.1 °C
- ΔTm at 10 µM (CaMK1g; read-out: dTm 7): 0.3 °C
- ΔTm at 10 µM (CaMK4; read-out: dTm 7): 0.1 °C
- ΔTm at 10 µM (DAPK3; read-out: dTm 7): -0.4 °C
- ΔTm at 10 µM (DMPK1; read-out: dTm 7): -0.1 °C
- ΔTm at 10 µM (EpHA4; read-out: dTm 7): 3.6 °C
- ΔTm at 10 µM (NQO2A; read-out: dTm 7): 0.6 °C
- ΔTm at 10 µM (PAK4; read-out: dTm 7): 0.5 °C
- ΔTm at 10 µM (PHKG2; read-out: dTm 7): 0.3 °C
- ΔTm at 10 µM (SRPK1; read-out: dTm 7): 0.1 °C
